Series [1] relates to Trypanosoma cruzi, Tulahuen CL2, beta-galactosidase strain. Put plainly: microbe, parasite or virus in culture.
The subject of series [2] is Leishmania infantum MHOM/MA(BE)/67/ITMAP263 intracellular amastigotes. Put plainly: microbe, parasite or virus in culture. The note with it: Macrophage, in Mus musculus.
Series [3] has as its system primary peritoneal mouse macrophages (PMM). Put plainly: cells. As to conditions: Macrophage.
Series [4] can be described thus: in vitro. As to conditions: human.
The mark [5] stands for this setting: read-out: L. inf. pIC50, intracellular amastigotes in PMM (converted), geometric mean of a minimum of two experiments ± standard error.
Where [6] appears, read: read-out: PMM pIC50 (converted).
[7] abbreviates: MRC5, read-out: T. cruzi Tulahuen C4 (LacZ) IC50.
[8] abbreviates: read-out: L. Inf. pIC50 (converted).
Where [9] appears, read: read-out: L. infantum MHOM/MA(BE)/67/ITMAP263 intracellular amastigotes IC50.
[10] abbreviates: read-out: L. Inf. pIC50, from L. infantum intracellular amastigote IC50 (converted).
[11] abbreviates: read-out: L. infantum MHOM/MA(BE)/67/ITMAP263 intracellular amastigotes IC50, intracellular amastigotes.

Read-outs that look alike come from different tables or passages of the source.

`O=C(Cn1ccnc1[N+](=O)[O-])NCc1ccccc1` [Benznidazole, reference compound] came in with an IC50 in series [1] (MRC5, […], reference drug, T. cruzi, 7 days) of 2 to 5 µM.

As to `COc1ccccc1S(=O)(=O)N(Cc1ccccc1)Cc1ccccc1` [Compound 10], the IC50 is 0.331 µM in series [2] (setting [5]) and over 64.6 µM in series [3] (setting [6]).

On to `O=S(=O)(c1cc(F)ccc1F)N(Cc1ccc(F)cc1)Cc1ccc(F)cc1` [Compound 12], for which the IC50 in series [2] (setting [5]) and in series [3] (setting [6]) was over 64.6 µM each time.

Consider `COc1ccc(Cl)cc1S(=O)(=O)N(CC(=O)N1CCN(C)CC1)Cc1ccccc1` [DNDI0003363387], for which the CC50 at 3 days in series [4] was over 32 µM. The IC50 in series [1] (setting [7]), in series [2] (setting [8]), in series [2] (setting [9]) and in series [3] (read-out: PMM IC50) was over 32 µM in each case.

Regarding `COc1ccc(OC)c(S(=O)(=O)N2CCCC2c2ccc(F)cc2)c1` (stereo not shown) [DNDI0003363388], the CC50 at 3 days in series [4] was over 32 µM. Further, the IC50 in series [1] (setting [7]) is 25.6 µM; in series [2] (setting [8]) it was 9.55 µM; in series [2] (setting [9]), 9.59 µM; in series [3] (read-out: PMM IC50) it was over 32 µM.

`COc1ccc(Cl)cc1S(=O)(=O)N(CC(=O)N1CCCC1)Cc1ccccc1` [DNDI0003363389] returned a CC50 at 3 days in series [4] of over 32 µM. For the same molecule, the IC50 in series [1] (setting [7]) was over 32 µM; in series [2] (setting [8]) it was 15.5 µM; in series [2] (setting [9]), 15.5 µM; in series [3] (read-out: PMM IC50), over 32 µM.

With `CC(=O)Nc1ccc(Cl)c(C(=O)NC(Cn2ccnc2)c2ccccc2)c1` (stereo not shown) [DNDI0003363391], the CC50 at 3 days in series [4] was over 55.4 µM. Also, the IC50 in series [1] (setting [7]), in series [2] (setting [8]), in series [2] (setting [9]) and in series [3] (read-out: PMM IC50) was over 55.4 µM throughout.

For the molecule `O=C(NC(Cn1ccnc1)c1ccccc1)c1ccc(-n2cnnn2)cc1` (stereo not shown) [DNDI0003363392], the CC50 at 3 days in series [4] is over 55.4 µM. For the same molecule, the IC50 in series [1] (setting [7]) was 9 µM; in series [2] (setting [8]), over 49.4 µM; in series [2] (setting [9]), over 49.4 µM; in series [3] (read-out: PMM IC50) it was over 55.4 µM.

In turn, `COc1ccc(C)cc1S(=O)(=O)N(CC(=O)N1CCOCC1)Cc1ccccc1` [DNDI0003363393] displayed a CC50 at 3 days in series [4] of over 55.4 µM. The IC50 in series [1] (setting [7]) was over 55.4 µM; in series [2] (setting [8]) it was 19.1 µM; in series [2] (setting [9]), 18.9 µM; in series [3] (read-out: PMM IC50), over 55.4 µM.

In turn, `CCN(CC)C(=O)CN(Cc1ccccc1)S(=O)(=O)c1ccc(OC)c(OC)c1` [DNDI0003363394] came in with a CC50 at 3 days in series [4] of over 55.4 µM. The IC50 in series [1] (setting [7]) is over 55.4 µM; in series [2] (setting [8]), 32.4 µM; in series [2] (setting [9]) it was 32.1 µM; in series [3] (read-out: PMM IC50) it was over 55.4 µM.

For the molecule `COc1ccc(C)cc1S(=O)(=O)N(CC(=O)Nc1ccccc1)Cc1ccccc1` [DNDI0003363395], the CC50 at 3 days in series [4] was over 55.4 µM. The IC50 was 19.8 µM in series [1] (setting [7]), over 49.4 µM in series [2] (setting [8]), over 49.4 µM in series [2] (setting [9]) and over 55.4 µM in series [3] (read-out: PMM IC50).

The molecule `COc1ccc(C)cc1S(=O)(=O)N(CC(=O)NCc1ccc(Cl)cc1)Cc1ccccc1` [DNDI0003363396] yielded a CC50 at 3 days in series [4] of over 55.4 µM. In addition, the IC50 in series [1] (setting [7]) was 6.02 µM; in series [2] (setting [8]) it was 25.7 µM; in series [2] (setting [9]) it was 25.7 µM; in series [3] (read-out: PMM IC50), over 55.4 µM.

In turn, `COc1ccc(C)cc1S(=O)(=O)N(CC(N)=O)Cc1ccccc1` [DNDI0003363397] showed a CC50 at 3 days in series [4] of over 55.4 µM. Moreover, the IC50 in series [1] (setting [7]), in series [2] (setting [8]), in series [2] (setting [9]) and in series [3] (read-out: PMM IC50) was over 55.4 µM throughout.

For `COc1ccc(OC)c(S(=O)(=O)N2CCc3ccccc3C2)c1` [DNDI0003363398], the CC50 at 3 days in series [4] was over 55.4 µM. For the same molecule, the IC50 in series [1] (setting [7]), in series [2] (setting [8]), in series [2] (setting [9]) and in series [3] (read-out: PMM IC50) was over 55.4 µM in each case.

With `COc1ccc(C)cc1S(=O)(=O)N(CC(=O)O)Cc1ccccc1` [DNDI0003363399], the CC50 at 3 days in series [4] is over 55.4 µM. For the same molecule, the IC50 in series [1] (setting [7]), in series [2] (setting [8]), in series [2] (setting [9]) and in series [3] (read-out: PMM IC50) was over 55.4 µM each time.

Molecule `COc1ccc(S(=O)(=O)N(CC(=O)NC2CC2)Cc2ccccc2)cc1C` [DNDI0003363400] had a CC50 at 3 days in series [4] of over 55.4 µM. The IC50 in series [1] (setting [7]) was over 55.4 µM; in series [2] (setting [8]) it was over 49.4 µM; in series [2] (setting [9]), over 49.4 µM; in series [3] (read-out: PMM IC50), over 55.4 µM.

With `O=C(COc1ccc(Cl)cc1S(=O)(=O)NCc1ccccc1)N1CCOCC1` [DNDI0003363401], in series [4], the CC50 at 3 days is over 55.4 µM. Besides, the IC50 in series [1] (setting [7]), in series [2] (setting [8]), in series [2] (setting [9]) and in series [3] (read-out: PMM IC50) was over 55.4 µM each time.

Turning to `COc1ccc(OC)c(S(=O)(=O)n2cc(C)nc2-c2ccccc2)c1` [DNDI0003363402], the CC50 at 3 days in series [4] is over 55.4 µM. The IC50 in series [1] (setting [7]), in series [2] (setting [8]), in series [2] (setting [9]) and in series [3] (read-out: PMM IC50) was over 55.4 µM in each case.

In turn, `COCCNc1ccc(S(=O)(=O)N(CCOC)Cc2ccccc2)cc1` [DNDI0003366102] showed a CC50 at 3 days in series [4] of 38.1 µM. Moreover, the IC50 in series [1] (setting [7]) is 34.8 µM; in series [2] (setting [10]) it was 38.9 µM; in series [2] (setting [11]), 38.6 µM; in series [3] (read-out: PMM IC50), over 64 µM.

The molecule `CN(C)CCN(Cc1ccccc1)S(=O)(=O)c1ccccc1OC(F)(F)F` [DNDI0003367256] registered a CC50 at 3 days in series [4] of 53.4 µM. Further, the IC50 in series [1] (setting [7]) was 32 µM; in series [2] (setting [10]) it was 8.71 µM; in series [2] (setting [11]) it was 8.64 µM; in series [3] (read-out: PMM IC50), 45.2 µM.

Molecule `O=S1(=O)c2cc(F)ccc2OCCN1Cc1ccccc1` [DNDI0003368292] showed a CC50 at 3 days in series [4] of over 64 µM. Also, the IC50 in series [1] (setting [7]) is 48.9 µM; in series [2] (setting [10]) it was over 64 µM; in series [2] (setting [11]), over 64 µM; in series [3] (read-out: PMM IC50), over 64 µM.

In series [4], `COCC1COc2ccc(F)cc2S(=O)(=O)N1Cc1ccccc1` (stereo not shown) [DNDI0003369451] gave a CC50 at 3 days of over 64 µM. Moreover, the IC50 in series [1] (setting [7]), in series [2] (setting [10]), in series [2] (setting [11]) and in series [3] (read-out: PMM IC50) was over 64 µM each time.

In series [4], `O=S(=O)(c1cc(F)ccc1F)N(Cc1ccc(F)cc1)Cc1ccc(F)cc1` [DNDI0003371158] yielded a CC50 at 3 days of over 64 µM. Further, the IC50 in series [1] (setting [7]), in series [2] (setting [10]), in series [2] (setting [11]) and in series [3] (read-out: PMM IC50) was over 64 µM throughout.

With `O=S(=O)(c1cc(F)ccc1F)N(Cc1ccccc1)CC(O)c1ccc(F)cc1` (stereo not shown) [DNDI0003371159], in series [4], the CC50 at 3 days was 18.7 µM. For the same molecule, the IC50 in series [1] (setting [7]) is 7.27 µM; in series [2] (setting [10]) it was 33.1 µM; in series [2] (setting [11]), 33.1 µM; in series [3] (read-out: PMM IC50), over 64 µM.

Turning to `CC(=O)O[C@H]1C(=O)[C@@]2(C)[C@H]([C@H](OC(=O)c3ccccc3)[C@]3(O)C[C@H](OC(=O)[C@H](O)[C@@H](NC(=O)c4ccccc4)c4ccccc4)C(C)=C1C3(C)C)[C@]1(OC(C)=O)CO[C@@H]1C[C@@H]2O` [paclitaxel, reference compound], in series [4], the CC50 at 3 days was under 0.01 µM.

Take `CC[C@]1(O)C[C@@H]2CN(CCc3c([nH]c4ccccc34)[C@@](C(=O)OC)(c3cc4c(cc3OC)N(C)[C@H]3[C@@](O)(C(=O)OC)[C@H](OC(C)=O)[C@]5(CC)C=CCN6CC[C@]43[C@@H]65)C2)C1` [vinblastine, reference compound]: the CC50 at 3 days in series [4] was under 0.01 µM.

The values above are taken from paper PMC8126888 (RSC Medicinal Chemistry, 2020).
